Patent US4681872A (priority 1985, dated 1987)
In brackets after ≈: the same amount, converted by molar mass. Read-outs that look alike come from different tables or passages of the source.

Columns and labels:
[1] = system: Pseudomonas aeruginosa K799/WT; assay: antimicrobial spectrum, agar dilution MIC; details: BHI agar, 35°-37° C., 20-24 hours
[2] = system: Pseudomonas aeruginosa BMH10; assay: antimicrobial spectrum, agar dilution MIC; details: BHI agar, 35°-37° C., 20-24 hours
[3] = system: Strep. pyogenes M79061-98; assay: antimicrobial spectrum, agar dilution MIC; format: cell-based; details: BHI agar, 35°-37° C., 20-24 hours
[4] = system: Bact. fragilis 784; details: BHI agar, 35°-37° C., 20-24 hours
[5] = system: Micrococcus luteus 4698; assay: antimicrobial spectrum, agar dilution MIC; details: BHI agar, 35°-37° C., 20-24 hours
[6] = beagle dogs, oral, 10.0 mg/kg, buffered solution of the lactobionate salt in water; in comparison to erythromycin A
[7] = system: Micrococcus luteus 9341; assay: antimicrobial spectrum, agar dilution MIC; details: BHI agar, 35°-37° C., 20-24 hours
[8] = system: Strep. faecium ATCC 8043; assay: antimicrobial spectrum, agar dilution MIC; format: cell-based; details: BHI agar, 35°-37° C., 20-24 hours
[9] = system: Pseudomonas cepacia 2961; assay: antimicrobial spectrum, agar dilution MIC; details: BHI agar, 35°-37° C., 20-24 hours
[10] = system: Lactobacillus Casei ATCC 7469; assay: antimicrobial spectrum, agar dilution MIC; details: BHI agar, 35°-37° C., 20-24 hours
[11] = human, in vivo; cited from earlier work
[12] = system: Bact. fragilis 784; assay: microbe, parasite or virus in culture; details: Bacteroides fragilis
[13] = system: Bact. fragilis UC-2; assay: microbe, parasite or virus in culture; details: Bacteroides fragilis, UC2

SMILES	MIC [1]	MIC [2]	MIC [3]	MIC [4]	MIC [5]	half life [6]	peak blood level [6]	MIC [7]	MIC [8]	MIC [9]	MIC [10]	serum half-life [11]	MIC [12]	MIC [13]
CCC1OC(=O)C(C)C(OC2CC(C)(OC)CC(C)O2)C(C)C(OC2OC(C)CC(N(C)C)C2O)C(C)(O)CC(C)C(=O)C(C)C2OC(=O)OC12C (centres unmarked) [4"-deoxyerythromycin A 11,12-carbonate]	100 µg/mL (≈ 134 µM)	50 µg/mL (≈ 67.2 µM)	.12 µg/mL (≈ 0.161 µM)	.4 µg/mL (≈ 0.538 µM)	.1 µg/mL (≈ 0.134 µM)	substantially longer half life	markedly higher peak blood level	.02 µg/mL (≈ 0.0269 µM)	.05 µg/mL (≈ 0.0672 µM)	50 µg/mL (≈ 67.2 µM)	.01 µg/mL (≈ 0.0134 µM)			
CC[C@H]1OC(=O)[C@H](C)[C@@H](O[C@H]2C[C@@](C)(OC)[C@@H](O)[C@H](C)O2)[C@H](C)[C@@H](O[C@@H]2O[C@H](C)C[C@H](N(C)C)[C@H]2O)[C@](C)(O)C[C@@H](C)C(=O)[C@H](C)[C@@H](O)[C@]1(C)O [Erythromycin A, reference compound]												2 to 3 h	1.6 µg/mL (≈ 2.18 µM)	1.6 µg/mL (≈ 2.18 µM)
